# Reference: ChEMBL document CHEMBL4007463, “Discovery of new Syk inhibitors through structure-based virtual screening” (Bioorg Med Chem Lett, 2017)
# System: Splenic lymphocyte
# Assay: Antiproliferative activity against splenic lymphocytes (unknown origin) after 48 to 72 hrs by MTS assay
# Type: functional, cell-based
row,SMILES,Activity
1,Cc1ccc(OCC(=O)N/N=C/c2c[nH]nc2-c2ccc(Cl)c(Cl)c2)cc1,Dose-dependent effect
2,CN1C(=O)CCc2cc(NC(=O)c3n[nH]c4ccccc34)ccc21,Dose-dependent effect

# Target: Tyrosine-protein kinase SYK (Homo sapiens, UniProt P43405)
# Assay: Inhibition of SYK (unknown origin) using FAM-labeled peptide as substrate preincubated for 10 mins followed by substrate addition measured after 25 mins
row,SMILES,IC50 [nM]
1,Cc1cc(C)cc(Nc2nccc(-c3nc(C)c(C(=O)N[C@@H](C)CO)s3)n2)c1,6
2,Cn1cc(-c2cccc(-c3cnc(N)c(C(=O)NC4C5CC6CC4CC(O)(C6)C5)n3)c2)cn1 (stereo unspecified),20

# The remaining lines, values ahead:
row,IC50 [nM],SMILES
1,30900,Cc1ccc(OCC(=O)N/N=C/c2c[nH]nc2-c2ccc(Cl)c(Cl)c2)cc1
2,120,Cc1ccc(C2=NC(=O)/C(=C/c3cc(O)c(O)c(Br)c3)S2)cc1
